Several values for one entry are separate records, joined by “and”; a condition that tells them apart may be missing. Equal values may be shown once. Toxic doses and inconclusive results are not listed.

For this test, the system named is BDF1 mice, P388 leukemia ip, median survival T/C. Put plainly: NCI In Vivo Anticancer Drug Screen. Data for tumor model P388 Leukemia (intraperitoneal) in B6D2F1 (BDF1) mice. The note with it: endpoint: median survival time, higher = longer survival. On the procedure:
The antitumor activity of compounds was measured in mice bearing transplantable tumors. Survival or tumor size were measured and the results are expressed as the measurement made in the treated group (T) divided by the measurement made in the vehicle treated control group (C). The tumor model used in this assay is P388 Leukemia (intraperitoneal) in B6D2F1 (BDF1) mice

Setting [1] is: dose: 100.0 mg/kg/injection, schedule: Q01DX009 (ip), vehicle: saline with Tween-80.
The mark [2] stands for this setting: dose: 200.0 mg/kg/injection, schedule: Q01DX009 (ip), vehicle: saline with Tween-80.
Where [3] appears, read: dose: 100.0 mg/kg/injection, schedule: Q04DX003 (ip), vehicle: saline with Tween-80.
[4] abbreviates: dose: 200.0 mg/kg/injection, schedule: Q04DX003 (ip), vehicle: saline with Tween-80.
Setting [5] is: dose: 50.0 mg/kg/injection, schedule: Q04DX003 (ip), vehicle: Klucel (hydroxypropylcellulose) (HPC).
[6] abbreviates: dose: 100.0 mg/kg/injection, schedule: Q04DX003 (ip), vehicle: Klucel (hydroxypropylcellulose) (HPC).
Where [7] appears, read: dose: 50.0 mg/kg/injection, schedule: Q01DX009 (ip), vehicle: Klucel (hydroxypropylcellulose) (HPC).
[8] abbreviates: dose: 200.0 mg/kg/injection, schedule: Q01DX009 (ip), vehicle: Klucel (hydroxypropylcellulose) (HPC).
[9] abbreviates: dose: 200.0 mg/kg/injection, schedule: Q04DX003 (ip), vehicle: Klucel (hydroxypropylcellulose) (HPC).
The mark [10] stands for this setting: dose: 50.0 mg/kg/injection, schedule: Q04DX003 (ip), vehicle: saline with Tween-80.
Where [11] appears, read: dose: 25.0 mg/kg/injection, schedule: Q01DX009 (ip), vehicle: saline.

Turning to `CCCCc1ccc(Sc2cccc3c2C(=O)c2c(Sc4ccc(CCCC)cc4)cccc2C3=O)cc1`, the T/C was 95 % of control under setting [1]; 90 % of control under setting [2]; 95 % of control (dose: 400.0 mg/kg/injection, schedule: Q01DX009 (ip), vehicle: saline with Tween-80).

As to `CSc1ncnc2c1ncn2CCCl`, the T/C was 91 % of control (dose: 50.0 mg/kg/injection, schedule: Q01DX009 (ip), vehicle: saline with Tween-80); 87 % of control under setting [1]; 95 % of control under setting [3]; 91 % of control under setting [2]; 100 % of control under setting [4].

In the case of `N#CCC(=O)N1Cc2cc3ccccc3nc2C1`, the T/C was 100 % of control (dose: 50.0 mg/kg/injection, schedule: Q01DX001 (ip), vehicle: saline sonified); 100 % of control (dose: 100.0 mg/kg/injection, schedule: Q01DX001 (ip), vehicle: saline sonified); 100 % of control (dose: 200.0 mg/kg/injection, schedule: Q01DX001 (ip), vehicle: saline sonified).

`Cc1sc([N+](=O)[O-])cc1[N+](=O)[O-]`: the T/C (dose: 25.0 mg/kg/injection, schedule: Q04DX003 (ip), vehicle: Klucel (hydroxypropylcellulose) (HPC)) is 91 % of control; the T/C under setting [5] was 95 % of control; the T/C under setting [6] is 91 % of control.

Turning to `COC(=O)C1=COC2OC3CC1C2C(C)O3` (stereo not given), the T/C was 99 % of control (dose: 12.5 mg/kg/injection, schedule: Q01DX009 (ip), vehicle: Klucel (hydroxypropylcellulose) (HPC)); 98 % of control (dose: 25.0 mg/kg/injection, schedule: Q01DX009 (ip), vehicle: Klucel (hydroxypropylcellulose) (HPC)); 115 % of control under setting [7].

For `CP(c1ccccc1)c1ccccc1`, the T/C was 109 % of control under setting [7]; 113 % of control under setting [5]; 113 % of control under setting [6]; 100 % of control (dose: 133.0 mg/kg/injection, schedule: Q01DX009 (ip), vehicle: Klucel (hydroxypropylcellulose) (HPC)); 107 % of control under setting [8]; 104 % of control under setting [9]. The T/C (dose: 300.0 mg/kg/injection, schedule: Q01DX009 (ip), vehicle: Klucel (hydroxypropylcellulose) (HPC)) was 123 % of control.

Turning to `COC(=O)C1(Br)CCC1(Br)C(=O)OC` (stereo not given), the T/C runs as follows: under setting [7], 100 % of control; (dose: 100.0 mg/kg/injection, schedule: Q01DX001 (ip), vehicle: other) 100 % of control; (dose: 100.0 mg/kg/injection, schedule: Q01DX009 (ip), vehicle: Klucel (hydroxypropylcellulose) (HPC)) 109 % of control; under setting [6], 109 % of control; (dose: 200.0 mg/kg/injection, schedule: Q01DX001 (ip), vehicle: other) 95 % of control; under setting [8], 113 % of control. Besides, the T/C runs as follows: under setting [9], 109 % of control; (dose: 400.0 mg/kg/injection, schedule: Q01DX001 (ip), vehicle: other) 112 % of control; (dose: 400.0 mg/kg/injection, schedule: Q04DX003 (ip), vehicle: Klucel (hydroxypropylcellulose) (HPC)) 113 % of control.

As for `O=C1CC(c2ccc(O)cc2)CC(=O)C1C(C1CC=CCC1)N(CCCl)CCCl` (stereo not given), the T/C reads like this: under setting [6], 109 % of control and 87 % of control; under setting [9], 120 % of control.

With `Oc1ccc(-c2n[nH]c3c2CCCc2ccccc2-3)cc1`, the T/C by setting is: (dose: 12.5 mg/kg/injection, schedule: Q04DX003 (ip), vehicle: saline with Tween-80) 109 % of control; (dose: 25.0 mg/kg/injection, schedule: Q04DX003 (ip), vehicle: saline with Tween-80) 118 % of control; under setting [10], 113 % of control.

As to `O=S(=O)(O)SCCNCCCCCC1CCCCC1`, the T/C runs as follows: (dose: 0.75 mg/kg/injection, schedule: Q01DX009 (ip), vehicle: saline) 100 % of control; (dose: 1.5 mg/kg/injection, schedule: Q01DX009 (ip), vehicle: saline) 100 % of control; (dose: 3.0 mg/kg/injection, schedule: Q01DX009 (ip), vehicle: Klucel (hydroxypropylcellulose) (HPC)) 100 % of control; (dose: 3.0 mg/kg/injection, schedule: Q01DX009 (ip), vehicle: saline) 100 % of control; (dose: 6.0 mg/kg/injection, schedule: Q01DX009 (ip), vehicle: Klucel (hydroxypropylcellulose) (HPC)) 115 % of control; (dose: 6.0 mg/kg/injection, schedule: Q01DX009 (ip), vehicle: saline) 105 % of control.

As for `O=S(=O)(O)c1ccc(Br)cc1`, the T/C is 92 % of control (dose: 100.0 mg/kg/injection, schedule: Q01DX009 (ip), vehicle: saline); 115 % of control (dose: 100.0 mg/kg/injection, schedule: Q04DX003 (ip), vehicle: saline); 107 % of control (dose: 200.0 mg/kg/injection, schedule: Q01DX009 (ip), vehicle: saline); 110 % of control (dose: 200.0 mg/kg/injection, schedule: Q04DX003 (ip), vehicle: saline); 100 % of control (dose: 400.0 mg/kg/injection, schedule: Q01DX009 (ip), vehicle: saline); 115 % of control (dose: 400.0 mg/kg/injection, schedule: Q04DX003 (ip), vehicle: saline).

On to `Cn1nc(NC(=O)C(F)(F)F)c2ncc(-c3ccccc3)nc21`, for which the T/C by setting is: under setting [10], 105 % of control; under setting [3], 100 % of control; under setting [4], 100 % of control.

With `CC(C)CC(CC(C)C)NCC(C)OC(=O)c1ccc([N+](=O)[O-])cc1` (stereo not given), the T/C (dose: 50.0 mg/kg/injection, schedule: Q01DX009 (ip), vehicle: water) is 106 % of control; the T/C (dose: 50.0 mg/kg/injection, schedule: Q04DX003 (ip), vehicle: water) is 100 % of control; the T/C (dose: 100.0 mg/kg/injection, schedule: Q01DX009 (ip), vehicle: water) is 92 % of control; the T/C (dose: 100.0 mg/kg/injection, schedule: Q04DX003 (ip), vehicle: water) is 103 % of control; the T/C (dose: 200.0 mg/kg/injection, schedule: Q01DX009 (ip), vehicle: water) was 103 % of control; the T/C (dose: 200.0 mg/kg/injection, schedule: Q04DX003 (ip), vehicle: water) is 94 % of control. For the same compound, for the setting “dose: 400.0 mg/kg/injection, schedule: Q04DX003 (ip), vehicle: water”, the T/C is 88 % of control.

Consider `Nc1ccc(OCc2ccc(S(=O)(=O)F)c(Cl)c2)c(Cl)c1`, for which the T/C runs as follows: (dose: 100.0 mg/kg/injection, schedule: Q01DX001 (ip), vehicle: saline) 103 % of control; (dose: 200.0 mg/kg/injection, schedule: Q01DX001 (ip), vehicle: saline) 100 % of control; (dose: 400.0 mg/kg/injection, schedule: Q01DX001 (ip), vehicle: saline) 92 % of control.

In the case of `O=C1NC(c2ccccc2)C(=O)N1CCN(CCCl)CCCl` (stereo not given), the T/C runs as follows: (dose: 1.56 mg/kg/injection, schedule: Q01DX009 (ip), vehicle: saline) 114 % of control; (dose: 3.12 mg/kg/injection, schedule: Q01DX009 (ip), vehicle: saline) 105 % of control; under setting [11], 201 % of control.

For the compound `OC1C2CCC(CC2)C1O` (stereo not given), the T/C runs as follows: (dose: 4.5 mg/kg/injection, schedule: Q01DX009 (ip), vehicle: saline with Tween-80) 100 % of control; (dose: 9.0 mg/kg/injection, schedule: Q01DX009 (ip), vehicle: saline with Tween-80) 86 % of control; (dose: 9.0 mg/kg/injection, schedule: Q04DX003 (ip), vehicle: saline with Tween-80) 90 % of control; (dose: 18.0 mg/kg/injection, schedule: Q04DX003 (ip), vehicle: saline with Tween-80) 90 % of control.

For `OCCN1CCN(CCCN2c3ccccc3Oc3ccc(C(F)(F)F)cc32)CC1`, the T/C runs as follows: (dose: 15.0 mg/kg/injection, schedule: Q04DX003 (ip), vehicle: saline) 105 % of control; under setting [11], 104 % of control; (dose: 30.0 mg/kg/injection, schedule: Q04DX003 (ip), vehicle: saline) 115 % of control; under setting [7], 150 % of control; (dose: 120.0 mg/kg/injection, schedule: Q04DX003 (ip), vehicle: saline) 105 % of control.

Source of the values: PubChem BioAssay AID328 (DTP/NCI, 2004).
